Active and inactive are the calls of the source.
Legend:
[1] = target: Delta-type opioid receptor (Homo sapiens, UniProt P41143); experiment: HTS Image-Based Screen for Antagonists of the DOR Receptor. [Related pubchem assays (depositor defined):AID1777, AID1785, AID1786, AID2133]; assay type: functional;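 also: U2OS cells expressing DOR stimulated with 100 nM SNC80 agonist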
[2] = MC4R antagonists, dose response, counter-screen for LGR2 antagonist project, cell-based, plate reader, cherry pick (AID 743444); assay type: functional;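 also: transfected HEK 293 cells stimulated with alpha-MSH peptide; potency of inhibitors of the alpha-MSH evoked signal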
[3] = HEK293 cell cytotoxicity, dose response, cytotoxicity control, plate reader, cherry-picked samples (AID 743446); assay type: functional, cell-based
[4] = tested on: Streptococcus sp. 'group A'; experiment: growth inhibition of control SK(-) GAS strain, dose response, counter-screen for streptokinase expression inhibitor project, luminescence, kanamycin, BacTiterGlo, confirmation (AID 1900); assay type: functional, organism-based
Streptokinase A = target: T1, Streptokinase A (Streptococcus pyogenes serotype M1, UniProt P10520); experiment: S. pyogenes streptokinase expression inhibitors, potency, dose response, plasminogen activation absorbance, OD405 (AID 1914); assay type: functional, Streptococcus pyogenes M1 GAS;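 also: secreted streptokinase activity via plasminogen activation per viability signal from cell pellet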
T1 sequence (P10520 whole entry): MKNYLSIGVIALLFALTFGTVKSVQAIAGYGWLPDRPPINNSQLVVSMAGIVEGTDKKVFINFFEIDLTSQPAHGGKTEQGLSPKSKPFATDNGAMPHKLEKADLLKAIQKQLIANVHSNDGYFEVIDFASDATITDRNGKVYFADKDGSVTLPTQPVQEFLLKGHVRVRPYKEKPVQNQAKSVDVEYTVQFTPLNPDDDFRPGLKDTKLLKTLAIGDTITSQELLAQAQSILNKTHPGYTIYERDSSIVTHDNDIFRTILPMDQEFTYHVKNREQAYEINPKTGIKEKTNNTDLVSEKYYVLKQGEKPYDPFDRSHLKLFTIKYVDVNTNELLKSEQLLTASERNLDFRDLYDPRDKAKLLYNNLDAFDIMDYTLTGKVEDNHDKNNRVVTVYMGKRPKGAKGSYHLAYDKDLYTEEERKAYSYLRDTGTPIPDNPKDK

[5] = target: T2, Serine/threonine-protein phosphatase (Candida dubliniensis (strain CD36 / CBS 7987 / NCPF 3949 / NRRLY-17841) (Yeast), UniProt B9W6M3); experiment: calcineurin pathway inhibitors in yeast reporter, dose response, S. cerevisiae, CDRE-lacZ, luminescence, secondary (AID 2388); assay type: functional, cell-based;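 also: yeast reporter cells carrying a calcineurin-responsive lacZ construct stimulated with calcium chloride; luminescent beta-galactosidase reporter signal in whole cells rather than isolated phosphatase activity; potency for inhibition where a drop in reporter signal means calcineurin blockade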
T2 sequence (B9W6M3 whole entry): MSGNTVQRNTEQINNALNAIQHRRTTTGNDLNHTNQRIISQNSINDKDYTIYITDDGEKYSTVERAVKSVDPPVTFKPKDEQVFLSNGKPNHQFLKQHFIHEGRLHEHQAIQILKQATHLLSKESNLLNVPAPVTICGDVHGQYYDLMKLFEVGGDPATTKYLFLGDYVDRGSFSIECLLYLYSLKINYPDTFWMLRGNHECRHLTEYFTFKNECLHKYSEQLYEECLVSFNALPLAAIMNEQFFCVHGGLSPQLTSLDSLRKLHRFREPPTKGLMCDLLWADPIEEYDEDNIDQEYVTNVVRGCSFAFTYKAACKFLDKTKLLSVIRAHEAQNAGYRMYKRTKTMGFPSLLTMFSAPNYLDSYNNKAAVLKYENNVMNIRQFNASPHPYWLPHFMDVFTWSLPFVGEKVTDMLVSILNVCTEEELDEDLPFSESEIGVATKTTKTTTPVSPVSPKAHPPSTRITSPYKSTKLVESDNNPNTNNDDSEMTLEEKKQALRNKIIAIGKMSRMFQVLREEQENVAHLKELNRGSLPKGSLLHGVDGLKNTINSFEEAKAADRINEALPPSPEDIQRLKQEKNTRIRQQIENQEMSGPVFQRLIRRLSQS

INS1 = experiment: beta cell apoptosis inhibitors, cytokine rescue, dose response, luminescence, retest (AID 449756); assay type: functional, cell-based; details: Rattus norvegicus;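 also: cell death triggered by IL-1 beta plus TNF-alpha plus IFN-gamma mixture; protective hits raise ATP signal compared with cytokine alone wells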
[6] = target: T3, Apoptotic protease-activating factor 1 (Homo sapiens, UniProt O14727); assay type: functional
T3 sequence (O14727 whole entry): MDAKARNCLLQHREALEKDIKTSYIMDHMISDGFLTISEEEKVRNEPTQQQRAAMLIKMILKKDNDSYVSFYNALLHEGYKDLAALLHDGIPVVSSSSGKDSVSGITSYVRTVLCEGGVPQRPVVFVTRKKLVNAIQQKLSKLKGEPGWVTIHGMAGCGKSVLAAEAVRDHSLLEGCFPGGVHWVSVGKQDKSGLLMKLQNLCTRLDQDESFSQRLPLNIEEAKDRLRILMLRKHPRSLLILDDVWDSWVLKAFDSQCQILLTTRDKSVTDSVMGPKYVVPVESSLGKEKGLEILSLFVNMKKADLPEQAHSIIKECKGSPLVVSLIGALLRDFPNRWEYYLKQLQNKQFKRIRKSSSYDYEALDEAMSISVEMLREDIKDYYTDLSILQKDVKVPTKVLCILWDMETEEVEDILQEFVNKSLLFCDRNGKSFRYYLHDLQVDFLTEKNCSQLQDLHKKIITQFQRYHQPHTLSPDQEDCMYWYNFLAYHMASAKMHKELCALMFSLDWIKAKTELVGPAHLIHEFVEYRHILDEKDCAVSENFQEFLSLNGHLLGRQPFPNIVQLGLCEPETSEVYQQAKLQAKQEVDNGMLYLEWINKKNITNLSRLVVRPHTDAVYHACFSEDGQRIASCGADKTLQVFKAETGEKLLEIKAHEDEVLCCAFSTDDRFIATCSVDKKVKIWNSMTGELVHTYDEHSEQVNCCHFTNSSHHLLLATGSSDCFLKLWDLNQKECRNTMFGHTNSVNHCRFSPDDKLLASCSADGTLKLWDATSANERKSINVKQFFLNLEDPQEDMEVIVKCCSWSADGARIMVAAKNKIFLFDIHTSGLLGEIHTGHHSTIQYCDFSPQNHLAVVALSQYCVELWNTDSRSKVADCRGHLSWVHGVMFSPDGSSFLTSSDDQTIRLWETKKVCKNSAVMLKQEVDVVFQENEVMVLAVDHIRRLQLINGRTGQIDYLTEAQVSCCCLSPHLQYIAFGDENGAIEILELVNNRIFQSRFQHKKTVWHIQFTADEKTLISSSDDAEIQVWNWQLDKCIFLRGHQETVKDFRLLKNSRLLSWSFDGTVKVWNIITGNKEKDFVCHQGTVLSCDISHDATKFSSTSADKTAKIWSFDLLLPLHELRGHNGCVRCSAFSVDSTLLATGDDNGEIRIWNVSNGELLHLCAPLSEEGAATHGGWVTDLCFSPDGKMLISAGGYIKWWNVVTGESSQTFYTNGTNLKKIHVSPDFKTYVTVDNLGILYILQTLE

[7] = target: T4, Sentrin-specific protease 8 (Homo sapiens, UniProt Q96LD8); experiment: SENP8 protease inhibitors, SAR follow-up, biochemical, luminescence (AID 504501); assay type: functional
T4 sequence (Q96LD8 whole entry): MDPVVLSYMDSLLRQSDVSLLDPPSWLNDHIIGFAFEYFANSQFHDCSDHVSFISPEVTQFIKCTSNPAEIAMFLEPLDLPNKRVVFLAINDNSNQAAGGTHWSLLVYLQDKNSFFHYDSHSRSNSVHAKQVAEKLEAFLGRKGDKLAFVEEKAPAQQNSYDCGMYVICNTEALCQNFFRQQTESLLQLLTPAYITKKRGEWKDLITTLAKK

[8] = HeLa cell cytotoxicity, dose response, cytotoxicity control for MgcRacGAP inhibitor project (AID 624300); assay type: functional

Sequence of Delta-type opioid receptor (P41143 whole entry): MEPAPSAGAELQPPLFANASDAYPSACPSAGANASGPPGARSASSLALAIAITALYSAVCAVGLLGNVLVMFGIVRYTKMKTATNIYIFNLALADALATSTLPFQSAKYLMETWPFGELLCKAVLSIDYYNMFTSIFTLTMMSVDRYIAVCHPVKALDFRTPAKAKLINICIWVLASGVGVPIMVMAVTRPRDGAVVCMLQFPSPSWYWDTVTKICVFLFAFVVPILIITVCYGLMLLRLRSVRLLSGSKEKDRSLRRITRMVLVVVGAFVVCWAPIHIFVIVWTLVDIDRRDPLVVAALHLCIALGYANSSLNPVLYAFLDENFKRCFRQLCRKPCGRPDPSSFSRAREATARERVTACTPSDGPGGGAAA

## COc1cc(NC(=O)Cn2ncc(Cl)c(Cl)c2=O)c(C)cc1[N+](=O)[O-]
[1]
  IC50: > 32 µM (inactive)
[2]
  AC50: 29 µM (active)
[3]
  AC50: 6.28 µM (active)

## Cc1ccc(C)c(S(=O)(=O)N2CCN(Cc3ccc(O)c4ncccc34)CC2)c1
[4]
  EC50: 6.87 µM (active)
Streptokinase A
  EC50: > 150 µM (not active)
[5]
  EC50: 36 µM (active)
INS1
  AC50: 2.48 µM (active)

## Oc1ccc(/C=N\Nc2cc(N3CCOCC3)nc(N3CCOCC3)n2)c(O)c1
[6]
  IC50: 7.15 µM (active)
[7]
  IC50: > 99 µM (inactive)
[8]
  CC50: 100 µM (active)

From ChEMBL document CHEMBL1201862, “PubChem BioAssay data set” (2004)
